Read-outs that look alike come from different tables or passages of the source. Some results are limits rather than exact numbers.

One test relates to lymphocytes. The experiment in a line: Lymphocyte reduction in C57BL/6 mice. It is filed as in vivo. Conditions: Mus musculus, ip. How it is done: An experiment was performed to evaluate the effect of Bcl-2 selective/Bcl-xL sparing compounds on immune cells and platelets, as evaluated in C57Bl/6 mice. Mice were treated four days with compounds (doses of 30 mg/kg, administered by intraperitoneal injection every day) and cell numbers were measured with a Cell Dyn hematology analyzer 24 hours after the first and last doses. Exposure of the compound (area under the curve) was calculated by using time points of 1, 6, 10 and 24 hours after the last dose.

The test system of the next test is RS4;11 cells. The experiment in a line: RS4;11 cell viability assay (CellTiter Glo). Format: cell-based. To be noted: 10% human serum, 48 hours. From the text:
The acute lymphoblastic leukemia (ALL) cell line RS4;11 was used as the primary human cell line to assess the cellular activity of Bcl-2 selective agents in vitro and their efficacy in vivo. Previous studies have shown by BH3 profiling, a mitochondrial assay that classifies blocks in the intrinsic apoptotic pathway, that RS4;11 cells were highly dependant on BCL-2 for survival and sensitive to the Bcl-2 family member inhibitor ABT-737 (Blood, 2008, Vol. 111, 2300-2309).
RS4;11 cells were cultured in RPMI-1640 supplemented with 2 mM L-glutamine, 10% FBS, 1 mM sodium pyruvate, 2 mM HEPES, 1% penicillin/streptomycin (Invitrogen), 4.5 g/L glucose and maintained at 37 C containing 5% CO2. To test for the cellular activity of compounds in vitro, cells were treated at 50,000 cells per well in 96-well microtiter plates in the presence of 10% human serum for 48 hours in a humidified chamber with 5% CO2. Cell cytotoxicity EC50 values were assessed using CellTiter Glo (Promega) according to the manufacturer's recommendations. The EC50 values were determined as a percentage of viable cells following treatment compared to the untreated control cells.
In general terms: ATP-based viability assays read luminescence as a measure of living cells.

The mark [1] stands for this setting: 30 mg/kg intraperitoneal every day for four days, 24 hours after the last dose, read-out: Lymphocyte reduction % inh. day 4.
Where [2] appears, read: 30 mg/kg intraperitoneal every day, 24 hours after the first dose, read-out: Lymphocyte reduction % inh. day 1.

In general, EC50 refers to the midpoint of the concentration-response curve. A low value points to a more potent agent. For the compound `C[C@H](Nc1ccc(S(=O)(=O)NC(=O)c2ccc(N3CCN(CC4=C(c5ccc(Cl)cc5)CC(C)(C)CC4)CC3)cc2Oc2cnc3[nH]ccc3c2)cc1[N+](=O)[O-])C1CCOCC1` [Example 2, 4-(4-{[2-(4-chlorophenyl)-4,4-dimethylcyclohex-1-en-1-yl]methyl}piperazin-1-yl)-N-[(3-nitro-4-{[(1S)-1-(tetrahydro-2H-pyran-4-yl)ethyl]amino}phenyl)sulfonyl]-2-(1H-pyrrolo[2,3-b]pyridin-5-yloxy)benzamide], the inhibition at 30 mg/kg with lymphocytes (setting [1]) and in the test on lymphocytes (setting [2]) was below 15% throughout. In the test on RS4;11 cells, this compound showed a half-maximal effective concentration (EC50) of 160 nM.

Regarding `CC1(C)CCC(CN2CCN(c3ccc(C(=O)NS(=O)(=O)c4ccc(NCC5CCC6(CC5)OCCO6)c([N+](=O)[O-])c4)c(Oc4cnc5[nH]ccc5c4)c3)CC2)=C(c2ccc(Cl)cc2)C1` [Example 7, 4-(4-{[2-(4-chlorophenyl)-4,4-dimethylcyclohex-1-en-1-yl]methyl}piperazin-1-yl)-N-({4-[(1,4-dioxaspiro[4.5]dec-8-ylmethyl)amino]-3-nitrophenyl}sulfonyl)-2-(1H-pyrrolo[2,3-b]pyridin-5-yloxy)benzamide], the figures for the inhibition at 30 mg/kg in the test on lymphocytes (setting [1]) and with lymphocytes (setting [2]) were 55% and 64%, respectively. This compound also displayed an EC50 with RS4;11 cells of 6.8 nM.

`CC1(C)CCC(CN2CCN(c3ccc(C(=O)NS(=O)(=O)c4ccc(NC56CC7CC(CC(O)(C7)C5)C6)c([N+](=O)[O-])c4)c(Oc4cnc5[nH]ccc5c4)c3)CC2)=C(c2ccc(Cl)cc2)C1` [Example 13, 4-(4-{[2-(4-chlorophenyl)-4,4-dimethylcyclohex-1-en-1-yl]methyl}piperazin-1-yl)-N-({4-[(3-hydroxytricyclo[3.3.1.1^3,7]dec-1-yl)amino]-3-nitrophenyl}sulfonyl)-2-(1H-pyrrolo[2,3-b]pyridin-5-yloxy)benzamide] showed an EC50 with RS4;11 cells of 130 nM.

`COC(=O)C1(CNc2ccc(S(=O)(=O)NC(=O)c3ccc(N4CCN(CC5=C(c6ccc(Cl)cc6)CC(C)(C)CC5)CC4)cc3Oc3cnc4[nH]ccc4c3)cc2[N+](=O)[O-])CCOCC1` [Example 17, methyl 4-{[(4-{[4-(4-{[2-(4-chlorophenyl)-4,4-dimethylcyclohex-1-en-1-yl]methyl}piperazin-1-yl)-2-(1H-pyrrolo[2,3-b]pyridin-5-yloxy)benzoyl]sulfamoyl}-2-nitrophenyl)amino]methyl}tetrahydro-2H-pyran-4-carboxylate]: in the test on RS4;11 cells, the EC50 was determined as 85 nM.

Turning to `CC1(C)CCC(CN2CCN(c3ccc(C(=O)NS(=O)(=O)c4ccc(NC[C@@H]5CCCOCC5)c([N+](=O)[O-])c4)c(Oc4cnc5[nH]ccc5c4)c3)CC2)=C(c2ccc(Cl)cc2)C1` [Example 19, 4-(4-{[2-(4-chlorophenyl)-4,4-dimethylcyclohex-1-en-1-yl]methyl}piperazin-1-yl)-N-[(3-nitro-4-{[(4R)-oxepan-4-ylmethyl]amino}phenyl)sulfonyl]-2-(1H-pyrrolo[2,3-b]pyridin-5-yloxy)benzamide], the inhibition at 30 mg/kg worked out at 45% with lymphocytes (setting [1]) and 49% in the test with lymphocytes (setting [2]). In the test with RS4;11 cells, it took 14 nM to reach a half-maximal effect (EC50).

In turn, `CC1(C)CCC(CN2CCN(c3ccc(C(=O)NS(=O)(=O)c4ccc(NCC5(F)COCCOC5)c([N+](=O)[O-])c4)c(Oc4cnc5[nH]ccc5c4)c3)CC2)=C(c2ccc(Cl)cc2)C1` [Example 39, 4-(4-{[2-(4-chlorophenyl)-4,4-dimethylcyclohex-1-en-1-yl]methyl}piperazin-1-yl)-N-[(4-{[(6-fluoro-1,4-dioxepan-6-yl)methyl]amino}-3-nitrophenyl)sulfonyl]-2-(1H-pyrrolo[2,3-b]pyridin-5-yloxy)benzamide] gave an EC50 with RS4;11 cells of 40 nM.

Consider `CC1(C)CCC(CN2CCN(c3ccc(C(=O)NS(=O)(=O)c4ccc(NCC5CCOCC5)c([N+](=O)[O-])c4)c(Oc4cnc5[nH]ccc5c4)c3)CC2)=C(c2ccc(Cl)cc2F)C1` [Example 48, 4-(4-{[2-(4-chloro-2-fluorophenyl)-4,4-dimethylcyclohex-1-en-1-yl]methyl}piperazin-1-yl)-N-({3-nitro-4-[(tetrahydro-2H-pyran-4-ylmethyl)amino]phenyl}sulfonyl)-2-(1H-pyrrolo[2,3-b]pyridin-5-yloxy)benzamide], for which the inhibition at 30 mg/kg in the test with lymphocytes (setting [1]) stood at 78%; in the test with lymphocytes (setting [2]), 76%. In addition, the EC50 in the test on RS4;11 cells amounted to 3.3 nM.

`CC1(C)CCC(CN2CCN(c3ccc(C(=O)NS(=O)(=O)c4ccc(NCC5CCOCC5)c([N+](=O)[O-])c4)c(Oc4cnc5[nH]ccc5c4)c3)CC2)=C(c2ccc(Cl)c(F)c2)C1` [Example 49, 4-(4-{[2-(4-chloro-3-fluorophenyl)-4,4-dimethylcyclohex-1-en-1-yl]methyl}piperazin-1-yl)-N-({3-nitro-4-[(tetrahydro-2H-pyran-4-ylmethyl)amino]phenyl}sulfonyl)-2-(1H-pyrrolo[2,3-b]pyridin-5-yloxy)benzamide]: a half-maximal response in the test with RS4;11 cells (EC50) required 46 nM.

As for `CCC1(CNc2ccc(S(=O)(=O)NC(=O)c3ccc(N4CCN(CC5=C(c6ccc(Cl)cc6)CC(C)(C)CC5)CC4)cc3Oc3cnc4[nH]ccc4c3)cc2[N+](=O)[O-])CCOCC1` [Example 50, 4-(4-{[2-(4-chlorophenyl)-4,4-dimethylcyclohex-1-en-1-yl]methyl}piperazin-1-yl)-N-[(4-{[(4-ethyltetrahydro-2H-pyran-4-yl)methyl]amino}-3-nitrophenyl)sulfonyl]-2-(1H-pyrrolo[2,3-b]pyridin-5-yloxy)benzamide], the half-maximal effective concentration (EC50) in the test on RS4;11 cells was 52 nM.

As to `CC1(C)CCC(CN2CCN(c3ccc(C(=O)NS(=O)(=O)c4ccc(NCC5CCOCC5)c([N+](=O)[O-])c4)c(Oc4cnc5[nH]ccc5c4)c3)CC2)=C(c2ccc(C3CC3)cc2)C1` [Example 52, 4-(4-{[2-(4-cyclopropylphenyl)-4,4-dimethylcyclohex-1-en-1-yl]methyl}piperazin-1-yl)-N-({3-nitro-4-[(tetrahydro-2H-pyran-4-ylmethyl)amino]phenyl}sulfonyl)-2-(1H-pyrrolo[2,3-b]pyridin-5-yloxy)benzamide], the inhibition at 30 mg/kg in the test on lymphocytes (setting [1]) turned out to be 51%; in the test on lymphocytes (setting [2]) it was 54%. Besides, a half-maximal effect in the test on RS4;11 cells (EC50) was put at 16 nM.

Consider `CC1(C)CCC(CN2CCN(c3ccc(C(=O)NS(=O)(=O)c4ccc(NCC5CCOCC5)c([N+](=O)[O-])c4)c(Oc4cnc5[nH]ccc5c4)c3)CC2)=C(c2ccc(C(F)F)cc2)C1` [Example 54, 4-[4-({2-[4-(difluoromethyl)phenyl]-4,4-dimethylcyclohex-1-en-1-yl}methyl)piperazin-1-yl]-N-({3-nitro-4-[(tetrahydro-2H-pyran-4-ylmethyl)amino]phenyl}sulfonyl)-2-(1H-pyrrolo[2,3-b]pyridin-5-yloxy)benzamide], for which, in the test on RS4;11 cells, the midpoint of the response, the EC50, lay at 9.9 nM.
